This passage reports IC50 results from patent US20090047246A1, “NOVEL INHIBITORS OF HEPATITIS C VIRUS REPLICATION” (InterMune, Inc., priority 2007, published 2009).

The experiment has as its target T1, HCV NS3 helicase (Hepatitis C virus genotype 1b, UniProt P26663).
T1 construct: full-length NS3 (1-631), purified at Array BioPharma
Description: HCV Helicase Prompt FRET Assay (Example A). Format: biochemical. Conditions: read-out: IC50 Activity. The procedure:
Test compounds were diluted to 2.5 mM by adding 6 uL of a 10 mM solution of the compound to 18 uL of DMSO in a 384-well Costar polypropylene plate. Serial dilutions (2.5×) were performed in the plate using DMSO as the diluent. 1 ul of solution was transferred from each well to a new 384-well Costar polypropylene plate.
A 2× mixture was prepared containing 100 nM helicase substrate, 500 nM helicase capture strand (CS), and 600 μM ATP by diluting stock solutions with assay buffer consisting of 25 mM MOPS, pH 7.0, and 1.5 mM MgCl2, 0.005% (v/v) Triton X-100. Stock helicase substrate was prepared by annealing a FAM-labeled oligonucleotide to a BHQ-1 labeled oligonucleotide, which were both custom synthesized and HPLC-purified at Biosearch Technologies. The FAM-labeled and BHQ-labeled oligonucleotide had the following sequences:
The helicase capture strand was custom synthesized and purified at Integrated DNA Technologies. The helicase capture strand had the following sequence:
The ATP solution was prepared in MilliQ water, pH adjusted to approximately 7 with NaOH. ATP powder was obtained from Sigma (A-7699). The concentration was determined via A260 (ext. coeff=15,400 M^−1cm^−1).
11.5 μL of assay buffer was added to all wells of the plate containing luL of test compound. 5 μL of the Compound/assay buffer mixture was added to a black polystyrene 384-well Proxiplate. A 4× Enzyme solution was prepared by diluting enzyme stock containing full-length NS3 (1-631), purified at Array BioPharma, with assay buffer. 5 μL of the 4× Enzyme solution was added to the Proxiplate and incubated for 5 minutes (for control wells lacking enzyme, assay buffer was used instead). 10 μL of 2× substrate/CS/ATP mixture was then added to all wells of Proxiplate. The final assay conditions included 50 nM Substrate, 250 nM Capture Strand, 300 μM ATP, 5 or 6 nM Enzyme, and 2% (v/v) DMSO. The reaction proceeded for 70 cycles (˜30 min.) on an Envision at room temperature. The plate was read using the Envision (top mirror=FITC; Excitation filter=FITC 485; Emission filter=FITC 535). The fluorescence intensity was recorded for a total of 30 minutes. The initial rates of the reactions was calculated and used to calculate IC50 values. The IC50 curve fitting was performed using either a 4-parameter or 5-parameter logistic equation.

Setting [1] is: HCV NS3 helicase, tables do not say whether Example A or Example B assay.
Setting [2] is: Table 21, compounds made using Scheme 28.
Where [3] appears, read: Table 34, compounds made using Schemes 51-52.
Where [4] appears, read: Table 36, compounds made using Scheme 54.
Where [5] appears, read: Table 31, compounds made using Schemes 38-45.
Where [6] appears, read: Table 35, compounds made using Scheme 53.

pIC50: −log10 of the molar value. Read-outs that look alike come from different tables or passages of the source.

T1 sequence (P26663 1027-1657): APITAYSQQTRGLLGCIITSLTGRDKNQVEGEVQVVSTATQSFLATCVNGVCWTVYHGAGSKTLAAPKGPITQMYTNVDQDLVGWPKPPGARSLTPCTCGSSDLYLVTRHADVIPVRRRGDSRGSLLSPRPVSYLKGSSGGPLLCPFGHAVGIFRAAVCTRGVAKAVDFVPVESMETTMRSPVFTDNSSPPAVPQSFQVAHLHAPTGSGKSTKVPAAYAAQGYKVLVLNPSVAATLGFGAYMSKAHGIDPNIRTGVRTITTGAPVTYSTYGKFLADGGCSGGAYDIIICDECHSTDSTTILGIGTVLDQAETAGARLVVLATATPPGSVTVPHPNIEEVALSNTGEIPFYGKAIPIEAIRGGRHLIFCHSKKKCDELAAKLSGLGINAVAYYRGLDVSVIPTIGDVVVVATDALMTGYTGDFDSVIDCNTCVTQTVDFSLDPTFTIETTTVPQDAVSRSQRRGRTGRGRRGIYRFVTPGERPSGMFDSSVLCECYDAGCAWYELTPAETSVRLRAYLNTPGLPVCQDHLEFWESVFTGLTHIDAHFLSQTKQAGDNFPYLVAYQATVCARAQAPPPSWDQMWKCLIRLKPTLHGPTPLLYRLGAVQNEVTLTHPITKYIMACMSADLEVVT

`O=C(O)Cc1cn(Cc2ccc(Oc3ccc(F)cc3)cc2)c2ccccc12` [Example 495]: under setting [1], the pIC50 is over 5.00.
For the molecule `O=P(O)(O)Cc1cn(-c2ccc(S(=O)(=O)CCO)cc2)c2ccc(Br)cc12` [Example 315], the pIC50 under setting [1] is 4.30 to 5.00.
Consider `Cc1ccccc1-c1ccc(-n2cc(CC(=O)O)c3ccccc32)cc1` [Example 154], for which, under setting [1], the pIC50 is over 5.00.
Same read-out and setting: for `CCN(Cc1ccccc1)c1ccc(-n2cc(CC(=O)OC)c3ccccc32)cc1` [Example 165] the value was 4.30 to 5.00.
`CN(c1ccc(Cn2cc(CC(=O)O)c3ccccc32)cc1)c1cc(C(F)(F)F)ccc1C(F)(F)F` [Example 581]: the pIC50 under setting [2] is over 5.00.
`CC(=O)Nc1cccc(-c2ccc(Cc3[nH]c4ccccc4c3CC(=O)O)cc2)c1` [Example 293]: the pIC50 under setting [1] is 4.30 to 5.00.
For `CN(c1cccc(Cn2cc(CC(=O)O)c3ccccc32)c1)c1cccc(F)c1F` [Example 533], under setting [1], the pIC50 is over 5.00.
As for `O=C(O)Cc1cn(Cc2ccc(Oc3c(C(F)(F)F)cccc3C(F)(F)F)cc2)c2ccccc12` [Example 592], the pIC50 (Table 23, compounds made using Scheme 30) is 4.30 to 5.00.
For `OC1CCCN(c2ccc3ccn(Cc4csc5ccc(Cl)cc45)c3c2)C1` (stereo not shown) [Example 742], the pIC50 under setting [1] is 4.30 to 5.00.
On to `CN(c1ccc(Cn2cc(CC(=O)O)c3ccccc32)cc1)c1ccccc1Cl` [Example 559], for which the pIC50 under setting [2] was over 5.00.
Regarding `CC(C)c1ccc(Cn2c(C(=O)NCc3nc4ccccc4[nH]3)c(CC(=O)O)c3ccccc32)cc1` [Example 449], the pIC50 under setting [1] is over 5.00.
Regarding `COC(=O)C(=O)c1cn(Cc2csc3ccc(Cl)cc23)c2cc(Br)ccc12` [Example 693], under setting [3], the pIC50 is under 4.30.
For `O=C(O)Cc1cn(-c2ccc3c(c2)CCC3=O)c2ccccc12` [Example 148], the pIC50 under setting [1] is 4.30 to 5.00.
As for `O=C(O)Cc1c(C(=O)C(Cc2ccccc2)c2ccc(-c3ccccc3)cc2)[nH]c2ccccc12` (stereo not shown) [Example 251], the pIC50 under setting [1] is over 5.00.
For `O=C(O)Cc1cn(Cc2ccc(Oc3ccccc3Cl)cc2)c2ccccc12` [Example 496], under setting [1], the pIC50 was over 5.00.
Take `O=C(O)Cc1cn(-c2ccc3ccccc3c2)c2ccccc12` [Example 143]: under setting [1], the pIC50 is 4.30 to 5.00.
Still for that read-out and setting: under `O=C(O)Cc1c(C(=O)c2cccc(Oc3ccccc3)c2)n(CC2CC2)c2ccccc12` [Example 221] stands over 5.00.
Turning to `O=C(O)Cc1cn(Cc2csc3ccc(Cl)cc23)c2cc(OCc3ccccc3)c(OCc3ccccc3)cc12` [Example 358], under setting [1], the pIC50 was over 5.00.
Consider `O=C(O)Cc1cn(Cc2ccc(Oc3cc(Cl)cc(Cl)c3)cc2)c2ccccc12` [Example 508], for which the negative logarithm of the IC50 (pIC50) under setting [1] is over 5.00.
As for `CCc1sc2ccc(Cl)cc2c1Cn1cc(CC(=O)O)c2ccc(-c3cc(N)cc(N)c3)cc21` [Example 721], the pIC50 under setting [4] is over 5.00.
Turning to `O=C(O)Cc1c(C(=O)c2cccc(Oc3ccccc3)c2)n(Cc2ccccc2)c2ccccc12` [Example 222], the pIC50 under setting [1] was over 5.00.
Turning to `Cc1cc([N+](=O)[O-])ccc1-n1c2ccccc2c2c(C(=O)O)cccc21` [Example 470], the pIC50 under setting [1] is under 4.30.
On the same count and under the same terms, under `CC(C)c1ccc(Cn2c(C(=O)NCc3cccc(F)c3)c(CC(=O)O)c3ccccc32)cc1` [Example 453] stands over 5.00.
Regarding `COc1cc2c(cc1OCc1ccccc1)c(CC(=O)O)cn2Cc1csc2ccc(Cl)cc12` [Example 346], the pIC50 under setting [1] was 4.30 to 5.00.
As to `CC(C)c1ccc(Cn2c(C(=O)N3CCOCC3)c(CC(=O)O)c3cc(Br)ccc32)cc1` [Example 428], the pIC50 under setting [1] is under 4.30.
Consider `CCN(CC)C(=O)c1c(CC(=O)O)c2cc(Br)ccc2n1Cc1ccc(C(C)C)cc1` [Example 432], for which, under setting [1], the pIC50 was 4.30 to 5.00.
For `CCOC(=O)Cc1cn(Cc2ccc(Oc3cc(Cl)cc(Cl)c3)cc2)c2ccccc12` [Example 515], under setting [1], the pIC50 is over 5.00.
In the case of `O=C(O)Cc1cn(-c2ccc([N+](=O)[O-])cc2C2OCCO2)c2ccc(Br)cc12` [Example 339], the pIC50 under setting [1] was 4.30 to 5.00.
As to `O=C(O)Cc1cn(Cc2csc3ccc(Cl)cc23)c2c(Oc3ccc([N+](=O)[O-])cc3)cccc12` [Example 356], the pIC50 under setting [1] was over 5.00.
Regarding `CCNc1cc(Cl)cc2c(Cn3cc(CC(=O)O)c4ccc(-c5cc(N)cc(N)c5)cc43)csc12` [Example 731], for the setting “Table 38, compounds made using Scheme 56, Scheme 57 and Scheme 61”, the pIC50 was over 5.00.
Turning to `N#CCc1cn(Cc2csc3ccc(Cl)cc23)c2ccc(CNC(=O)c3ccccc3)cc12` [Example 211], under setting [1], the pIC50 was 4.30 to 5.00.
In the case of `O=C(O)Cc1cn(Cc2ccc(Oc3ccc(C(F)(F)F)cc3)cc2)c2ccccc12` [Example 504], under setting [1], the pIC50 was over 5.00.
For `O=Cc1c[nH]c2cnc(OCc3ccccc3)cc12` [Example 326], under setting [1], the pIC50 is under 4.30.
On to `CN(c1ccc(Cn2cc(CC(=O)O)c3ccccc32)cc1)c1cccc(Cl)c1` [Example 560], for which the pIC50 under setting [2] was over 5.00.
In the case of `CC(C)c1ccc(Cn2cc(CC(=O)NO)c3ccccc32)cc1` [Example 677], the pIC50 under setting [3] is 4.30 to 5.00.
Take `O=C(O)Cc1c(-c2ccccc2)n(Cc2csc3ccc(Cl)cc23)c2ccccc12` [Example 414]: under setting [1], the pIC50 is over 5.00.
Regarding `CN(C)C(=O)c1cccc(-c2cccc(Cn3cc(CC(=O)O)c4cc(OCc5ccccc5)ccc43)c2)c1` [Example 117], the pIC50 under setting [1] is 4.30 to 5.00.
For `Cc1cc([N+](=O)[O-])ccc1-n1cc(C(NC(=O)C2CCN(C(=O)OC(C)(C)C)CC2)C(=O)O)c2ccccc21` (stereo not shown) [Example 673], the pIC50 under setting [3] was 4.30 to 5.00.
Turning to `CC(C)c1ccc(Cn2c(C(=O)NC3CCN(C(=O)OC(C)(C)C)CC3)c(CC(=O)O)c3cc(Br)ccc32)cc1` [Example 436], the pIC50 under setting [1] was over 5.00.
For the molecule `O=C(Cc1cn(Cc2csc3ccc(Cl)cc23)c2ccccc12)NS(=O)(=O)c1ccccc1` [Example 199], the pIC50 under setting [1] is 4.30 to 5.00.
Regarding `O=C(O)Cc1cn(-c2ccc(-c3cc(Cl)cc(Cl)c3)cc2)c2ccccc12` [Example 151], the pIC50 under setting [1] is over 5.00.
Regarding `O=C(O)Cc1cn(-c2ccc([N+](=O)[O-])cc2[N+](=O)[O-])c2ncc(Br)cc12` [Example 337], the negative-log IC50 (pIC50) under setting [1] was 4.30 to 5.00.
For the molecule `CCOc1ccc2scc(Cn3cc(CC(=O)O)c4ccccc43)c2c1` [Example 142], under setting [1], the pIC50 was 4.30 to 5.00.
With `COc1cccc(-c2cccc(C(=O)c3[nH]c4ccccc4c3CC(=O)O)c2)c1` [Example 229], the pIC50 under setting [1] was 4.30 to 5.00.
As to `CC(C)c1ccc(Cn2c(C(=O)NC3CC3)c(CC(=O)O)c3cc(Br)ccc32)cc1` [Example 434], under setting [1], the pIC50 was 4.30 to 5.00.
In the case of `N#Cc1ccc2c(CC(=O)O)cn(Cc3csc4ccc(Cl)cc34)c2c1` [Example 789], the pIC50 under setting [4] is 4.30 to 5.00.
Turning to `O=C(NCc1ccc2c(c1)c(Cc1nn[nH]n1)cn2Cc1csc2ccc(Cl)cc12)OCc1ccccc1` [Example 207], under setting [1], the pIC50 was over 5.00.
`CNc1cc(N)cc(-c2ccc3c(CC(=O)O)cn(Cc4csc5ccc(Cl)cc45)c3c2)c1` [Example 647]: the pIC50 under setting [5] was over 5.00.
On to `O=C(O)Cc1cn(Cc2ccc(Oc3cc(Cl)ccc3Cl)cc2)c2ccccc12` [Example 590], for which the pIC50 under setting [1] is over 5.00.
With `CN(c1cccc(Cn2cc(CC(=O)O)c3ccccc32)c1)c1cc(F)ccc1F` [Example 535], under setting [1], the pIC50 is 4.30 to 5.00.
Same read-out and setting: under `NC(=O)c1ccc(-c2ccc(C(=O)c3[nH]c4ccccc4c3CC(=O)O)cc2)cc1` [Example 265] stands 4.30 to 5.00.
Consider `O=C(O)Cc1c(Cc2cccc(-c3cccc(Cl)c3Cl)c2)oc2ccccc12` [Example 307], for which, under setting [1], the pIC50 is over 5.00.
For `Nn1c(=O)[nH]cc(-c2ccc3c(CC(=O)O)cn(Cc4csc5ccc(Cl)cc45)c3c2)c1=O` [Example 652], the pIC50 under setting [5] is 4.30 to 5.00.
Take `CC(C)c1ccc(Cn2c(C(=O)N3CCNC(=O)C3)c(CC(=O)O)c3cc(Br)ccc32)cc1` [Example 429]: the pIC50 under setting [1] is under 4.30.
For the molecule `Nc1cc(N)cc(-c2ccc3c(CC(=O)O)cn(Cc4csc5ccc(Br)cc45)c3c2)c1` [Example 734], under setting [6], the pIC50 was 4.30 to 5.00.
As for `N#Cc1ccc2scc(Cn3cc(CC(=O)O)c4ccc(-c5cc(N)cc(N)c5)cc43)c2c1` [Example 703], the pIC50 under setting [6] is 4.30 to 5.00.
On to `CCc1cc2cc(-n3cc(CC(=O)O)c4ccccc43)ccc2s1` [Example 149], for which, under setting [1], the pIC50 is over 5.00.
`O=C(O)Cc1c(C(=O)c2ccc(-c3ccccc3)cc2)[nH]c2ccc(Br)cc12` [Example 312]: the pIC50 under setting [1] is 4.30 to 5.00.
